Results taken from patent publication US11306081B2, “Phenylacetamides as inhibitors of rock” (BRISTOL-MYERS SQUIBB COMPANY, priority 2017, dated 2022).

Target: ROCK2 (Homo sapiens (Human), UniProt O75116)
Assay: ROCK assay (LABCHIP 3000 peptide phosphorylation assay)
Type: biochemical
Settings: 5 μM ATP, 1.5 μM peptide substrate, dose-response
Procedure, shortened: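 Rho kinase variants in 20 mM HEPES pH 7.5, 20 mM MgCl2, 0.015% Brij-35, 4 mM DTT, 5 μM ATP, 1.5 μM FITC-AHA-AKRRRLSSLRA-OH peptide; DMSO <2%. EDTA-stopped; phosphorylated/non-phosphorylated peptide separated by microfluidic LabChip readout. Dose-response inhibition curve-fitted to give IC50.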

ROCK2, sequence (O75116 whole entry, species assumed): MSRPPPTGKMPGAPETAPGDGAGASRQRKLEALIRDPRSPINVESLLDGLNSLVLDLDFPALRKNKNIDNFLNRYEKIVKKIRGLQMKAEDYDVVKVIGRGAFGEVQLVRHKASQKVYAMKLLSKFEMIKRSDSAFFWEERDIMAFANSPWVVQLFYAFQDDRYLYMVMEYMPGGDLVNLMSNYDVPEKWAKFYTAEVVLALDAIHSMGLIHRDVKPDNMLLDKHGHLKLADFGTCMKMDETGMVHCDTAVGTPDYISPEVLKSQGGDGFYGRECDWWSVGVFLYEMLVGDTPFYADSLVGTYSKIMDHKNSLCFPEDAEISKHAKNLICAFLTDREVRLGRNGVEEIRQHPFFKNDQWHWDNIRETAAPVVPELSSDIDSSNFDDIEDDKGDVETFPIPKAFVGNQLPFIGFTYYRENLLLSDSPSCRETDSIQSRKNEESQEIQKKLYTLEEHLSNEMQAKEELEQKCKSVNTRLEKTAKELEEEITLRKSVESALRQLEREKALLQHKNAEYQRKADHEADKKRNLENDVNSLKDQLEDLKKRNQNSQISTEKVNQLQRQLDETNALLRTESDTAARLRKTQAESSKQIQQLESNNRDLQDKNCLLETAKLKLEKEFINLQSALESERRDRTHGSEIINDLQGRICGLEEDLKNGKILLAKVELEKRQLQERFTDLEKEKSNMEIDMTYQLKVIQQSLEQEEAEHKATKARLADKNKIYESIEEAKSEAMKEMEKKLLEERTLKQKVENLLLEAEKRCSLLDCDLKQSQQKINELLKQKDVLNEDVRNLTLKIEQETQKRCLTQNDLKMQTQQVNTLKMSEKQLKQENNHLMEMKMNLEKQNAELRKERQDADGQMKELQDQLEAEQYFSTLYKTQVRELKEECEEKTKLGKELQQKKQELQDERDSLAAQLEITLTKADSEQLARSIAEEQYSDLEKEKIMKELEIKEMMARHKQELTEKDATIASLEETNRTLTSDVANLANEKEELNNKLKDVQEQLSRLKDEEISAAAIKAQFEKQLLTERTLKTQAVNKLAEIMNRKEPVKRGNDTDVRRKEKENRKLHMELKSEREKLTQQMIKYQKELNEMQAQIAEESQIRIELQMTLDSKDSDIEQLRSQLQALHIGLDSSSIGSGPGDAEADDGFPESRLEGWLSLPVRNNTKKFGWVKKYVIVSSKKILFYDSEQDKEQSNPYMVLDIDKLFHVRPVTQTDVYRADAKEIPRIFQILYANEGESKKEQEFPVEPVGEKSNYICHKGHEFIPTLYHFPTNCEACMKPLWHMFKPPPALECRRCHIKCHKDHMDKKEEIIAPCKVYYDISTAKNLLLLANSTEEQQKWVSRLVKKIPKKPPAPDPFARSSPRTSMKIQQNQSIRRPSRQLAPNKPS

| IC50 [nM] | Compound |
| --- | --- |
| 534 | Cn1nc(NC(=O)Cc2ccc(Oc3ncccc3C(N)=O)cc2)c2ccccc21 [Example 075, 2-(4-(2-((1-methyl-1H-indazol-3-yl)amino)-2-oxoethyl)phenoxy) nicotinamide] |
| 97 | NC(=O)c1cccnc1Oc1ccc(CC(=O)Nc2n[nH]c3ccccc23)cc1Cl [Example 122, 2-(4-(2-((1H-indazol-3-yl)-amino)-2-oxoethyl)-2-chlorophenoxy)-nicotinamide] |
| 194 | NC(=O)c1cccnc1Oc1ccc(CC(=O)Nc2nc3ccccc3s2)cc1 [Example 049, 2-(4-(2-(benzo[d]thiazol-2-ylamino)-2-oxoethyl)phenoxy) nicotinamide] |
| 7 | Cc1sc(NC(=O)Cc2ccc(Oc3ncccc3C(N)=O)c(Cl)c2)nc1-c1cnn(C)c1 [Example 104, 2-(2-chloro-4-(2-((5-methyl-4-(1-methyl-1H-pyrazol-4-yl)thiazol-2-yl)amino)-2-oxoethyl)phenoxy) nicotinamide] |
| 96 | Cc1sc(NC(=O)Cc2ccc(Oc3ncccc3C(N)=O)c(F)c2)nc1-c1ccc(F)cn1 [Example 014, 2-(2-fluoro-4-(2-((4-(5-fluoropyridin-2-yl)-5-methylthiazol-2-yl)amino)-2-oxoethyl)phenoxy)nic-otinamide] |
| 42 | NC(=O)c1cccnc1Oc1ccc(CC(=O)Nc2nc3ccccc3n2CCC(F)(F)F)cc1F [Example 154, 2-(2-fluoro-4-(2-oxo-2-((1-(3,3,3-trifluoropropyl)-1H-benzo[d]-imidazol-2-yl)-amino)ethyl)-phenoxy)nicotin-amide] |
| 93 | NC(=O)c1cccnc1Oc1ccc(CC(=O)Nc2nc3ccc(OC(F)(F)F)cn3n2)cc1F [Example 140, 2-(2-fluoro-4-(2-oxo-2-((6-(trifluoromethoxy)-[1,2,4]triazolo[1,5-a]pyridin-2-yl)amino)ethyl)phenoxy)nicotinamide] |
| 147 | CP(C)(=O)c1ccc2c(c1)nc(NC(=O)Cc1ccc(Oc3ncccc3C(N)=O)c(F)c1)n2CC(F)(F)F [Example 148, 2-(4-(2-((5-(dimethyl-phosphoryl)-1-(2,2,2-trifluoroethyl)-1H-benzo[d]imidazol-2-yl)amino)-2-oxoethyl)-2-fluorophenoxy)-nicotinamide] |
| 3460 | COCCn1c(NC(=O)Cc2ccc(Oc3ncccc3C(N)=O)c(F)c2)nc2cc(C(N)=O)ccc21 [Example 156, 2-(2-(4-((3-carbamoyl-pyridin-2-yl)oxy)-3-fluorophenyl)-acetamido)-1-(2-methoxyethyl)-1H-benzo[d]-imidazole-5-carboxamide] |
| 113 | CN1CCC(Oc2ccc(NC(=O)Cc3ccc(Oc4ncccc4C(N)=O)c(Cl)c3)cc2)CC1 [Example 095, 2-(2-chloro-4-(2-((4-((1-methylpiperidin-4-yl)oxy)phenyl)ami-no)-2-oxoethyl)phenoxy) nicotinamide] |
| 262 | COc1ccc2c(c1)CCc1sc(NC(=O)C(C)c3ccc(Oc4ncccc4C(N)=O)cc3)nc1-2 (stereo not shown) [Example 106, 2-(4-(1-((7-methoxy-4,5-dihydronaphtho[1,2-d]thiazol-2-yl)amino)-1-oxopropan-2-yl)phenoxy)nicotinamide] |
| 14 | NC(=O)c1cccnc1Oc1ccc(CC(=O)Nc2nc3ccccc3n2CC2CC2)cc1Cl [Example 007, 2-(2-chloro-4-(2-((1-(cyclopropylmethyl)-1H-benzo[d]imidazol-2-yl)amino)-2-oxoethyl)phenoxy)nicotinamide] |
| 183 | Cc1sc(NC(=O)Cc2ccc(Oc3ncccc3C(N)=O)c(F)c2)nc1-c1cnc(N2CCN(C)CC2)nc1 [Example 039, 2-(2-fluoro-4-(2-((5-methyl-4-(2-(4-methylpiperazin-1-yl)pyrimidin-5-yl)thiazol-2-yl)amino)-2-oxoethyl)phenoxy)nico-tinamide] |
| 41 | Cc1cccc(-c2nc(NC(=O)Cc3ccc(Oc4ncccc4C(N)=O)c(Cl)c3)sc2C)n1 [Example 022, 2-(2-chloro-4-(2-((5-methyl-4-(6-methylpyridin-2-yl)thiazol-2-yl)amino)-2-oxoethyl)phenoxy)nicotinamide] |
| 7 | NC(=O)c1cccnc1Oc1ccc(CC(=O)Nc2nc3cc(C(F)(F)F)ccc3n2CC2CC2)cc1Cl [Example 177, 2-(2-chloro-4-(2-((1-(cyclo-propylmethyl)-5-(trifluoro-methyl)-1H-benzo[d]-imidazol-2-yl)-amino)-2-oxo-ethyl)phenoxy)-nicotinamide] |
| 20 | CC(C)(O)COc1ccc2sc(NC(=O)Cc3ccc(Oc4ncccc4C(N)=O)c(F)c3)nc2c1 [Example 003, 2-(2-fluoro-4-(2-((5-(2-hydroxy-2-methylpropoxy)benzo[d]thiazol-2-yl)amino)-2-oxoethyl)phenoxy)nicotinamide] |
| 8 | COc1ccc2c(c1)CCc1sc(NC(=O)Cc3ccc(Oc4ncccc4C(N)=O)c(Cl)c3)nc1-2 [Example 116, 2-(2-chloro-4-(2-((7-methoxy-4,5-dihydronaphtho[1,2-d]thiazol-2-yl)amino)-2-oxoethyl)phenoxy)nicotinamide] |

| IC50 [nM] | Compound |
| --- | --- |
| 175 | Cc1sc(NC(=O)Cc2ccc(Oc3ncccc3C(N)=O)c(F)c2)nc1-c1cncnc1 [Example 041, 2-(2-fluoro-4-(2-((5-methyl-4-(pyrimidin-5-yl)thiazol-2-yl)amino)-2-oxoethyl)phenoxy)nico-tinamide] |
| 55 | NC(=O)c1cccnc1Oc1ccc(CC(=O)Nc2nc3ccccc3n2CC2CCC2)cc1F [Example 152, 2-(4-(2-((1-(cyclobutylmethyl)-1H-benzo[d]imidazol-2-yl)amino)-2-oxoethyl)-2-fluorophenoxy)nicotinamide] |
| 31 | Cc1nc(NC(=O)Cc2ccc(Oc3ncccc3C(N)=O)c(F)c2)sc1C [Example 098, 2-(4-(2-((4,5-dimethylthiazol-2-yl)amino)-2-oxoethyl)-2-fluorophenoxy)nico-tinamide] |
| 8 | NC(=O)c1cccnc1Oc1ccc(CC(=O)Nc2nc3cc(-c4cn[nH]c4)ccc3s2)cc1F [Example 031, 2-(4-(2-((5-(1H-pyrazol-4-yl)benzo[d]thiazol-2-yl)amino)-2-oxoethyl)-2-fluorophenoxy)nicotin-amide] |
| 2180 | NC(=O)c1cccnc1Oc1ccc(CC(=O)Nc2nc3ccccc3n2CC2CCOCC2)cc1F [Example 159, 2-(2-fluoro-4-(2-oxo-2-((1-((tetra-hydro-2H-pyran-4-yl)methyl)-1H-benzo[d]imidazol-2-yl)amino)ethyl)-phenoxy)nicotin-amide] |
| 89 | COc1ccc2nc(NC(=O)Cc3ccc(Oc4ncccc4C(N)=O)cc3)sc2c1 [Example 067, 2-(4-(2-((6-methoxybenzo[d]thiazol-2-yl)amino)-2-oxoethyl)phenoxy) nicotinamide] |
| 465 | CP(C)(=O)c1ccc2nc(NC(=O)Cc3ccc(Oc4ncccc4C(N)=O)c(F)c3)n(CC(F)F)c2c1 [Example 150, 2-(4-(2-((1-(2,2-difluoroethyl)-6-(dimethylphosphoryl)-1H-benzo[d]imidazol-2-yl)amino)-2-oxo-ethyl)-2-fluoro-phenoxy)nicotinamide] |
| 18 | COc1ccc2nc(NC(=O)Cc3ccc(Oc4ncccc4C(N)=O)c(F)c3)n(CC(F)F)c2c1 [Example 123, 2-(4-(2-((1-(2,2-difluoroethyl)-6-methoxy-1H-benzo-[d]imidazol-2-yl)-amino)-2-oxoethyl)-2-fluorophenoxy)-nicotinamide] |
| 68.5 | COc1ccn2nc(NC(=O)Cc3ccc(Oc4ncccc4C(N)=O)cc3)nc2c1 [Example 124, 2-(4-(2-((7-methoxy-[1,2,4]-triazolo[1,5-a]-pyridin-2-yl)-amino)-2-oxo-ethyl)phenoxy)-nicotinamide] |
| 4 | NC(=O)c1cccnc1Oc1ccc(CC(=O)Nc2nc(C3CCC3)c(-c3ccccn3)s2)cc1Cl [Example 023, 2-(2-chloro-4-(2-((4-cyclobutyl-5-(pyridin-2-yl)thiazol-2-yl)amino)-2-oxoethyl)phenoxy)nicotinamide] |
| 106 | COc1cccn2nc(NC(=O)Cc3ccc(Oc4ncccc4C(N)=O)cc3)nc12 [Example 083, 2-(4-(2-((8-methoxy-[1,2,4]triazolo[1,5-a]pyridin-2-yl)amino)-2-oxoethyl)phenoxy) nicotinamide] |
| 3 | NC(=O)c1cccnc1Oc1ccc(CC(=O)Nc2nc3c(F)cccc3n2CC2CC2)cc1Cl [Example 171, 2-(2-chloro-4-(2-((1-(cyclo-propylmethyl)-4-fluoro-1H-benzo[d]-imidazol-2-yl)-amino)-2-oxo-ethyl)phenoxy)-nicotinamide] |
| 558 | CCCS(=O)(=O)c1ccc2[nH]c(NC(=O)Cc3ccc(Oc4ncccc4C(N)=O)cc3)nc2c1 [Example 069, 2-(4-(2-oxo-2-((5-(propylsulfonyl)-1H-benzo[d]imidazol-2-yl)amino)ethyl)phe-noxy)nicotinamide] |
| 7 | COc1ccn2nc(NC(=O)Cc3ccc(Oc4ncccc4C(N)=O)c(F)c3)nc2c1 [Example 008, 2-(2-fluoro-4-(2-((7-methoxy-[1,2,4]triazolo[1,5-a]pyridin-2-yl)amino)-2-oxoethyl)phenoxy)nicotinamide] |
| 24 | NC(=O)c1cccnc1Oc1ccc(CC(=O)Nc2nc3ccc(F)cc3n2CC(F)F)cc1F [Example 166, 2-(4-(2-((1-(2,2-difluoroethyl)-6-fluoro-1H-benzo[d]-imidazol-2-yl)-amino)-2-oxo-ethyl)-2-fluoro-phenoxy)nicotin-amide] |
| 89 | NC(=O)c1cccnc1Oc1ccc(CC(=O)Nc2nc3cc(-c4c[nH]nc4C(F)(F)F)ccc3s2)cc1F [Example 032, 2-(2-fluoro-4-(2-oxo-2-((5-(3-(trifluoromethyl)-1H-pyrazol-4-yl)benzo[d]thiazol-2-yl)amino)ethyl)phenoxy) nicotinamide] |
| 110 | Cc1cccc2nc(NC(=O)Cc3ccc(Oc4ncccc4C(N)=O)c(F)c3)nn12 [Example 096, 2-(2-fluoro-4-(2-((5-methyl-[1,2,4]triazolo[1,5-a]pyridin-2-yl)amino)-2-oxoethyl)phenoxy) nicotinamide] |
